In ChEMBL document CHEMBL1201862, “PubChem BioAssay data set” (2004):
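Values below derive from 48-hour exposures of cells grown in 96-well plates, with endpoints linearly interpolated between the two concentrations bracketing the appropriate inhibition level. The concentration for 50% growth inhibition is given as GI50.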 Activity calls are given as the source filed them. Cut-off read from the data, not from the text of the source: active = GI50 up to about 1.1 µM and inactive = higher.

Tests used:
Experiment in all cases: DTP human tumour cell line panel, 48 h
NCI-H23 = tested on: NCI-H23
SK-MEL-5 = tested on: SK-MEL-5
UACC-257 = tested on: UACC-257
NCI-H522 = tested on: NCI-H522
LOX IMVI = tested on: LOX IMVI
ACHN = tested on: ACHN
NCI-H226 = tested on: NCI-H226
RPMI-8226 = tested on: RPMI-8226
Hs-578T = tested on: Hs-578T
SF-539 = tested on: SF-539
HOP-62 = tested on: HOP-62
SF-295 = tested on: SF-295
SF-268 = tested on: SF-268
SW-620 = tested on: SW-620
NCI/ADR-RES = tested on: NCI/ADR-RES
M14 = tested on: M14
COLO 205 = tested on: COLO 205
HL-60 = tested on: HL-60
MDA-MB-435 = tested on: MDA-MB-435
CAKI-1 = tested on: CAKI-1

Measured: GI50

C(=N\N=C1NCCCN1)/c1ccc2ccccc2c1
inactive: NCI-H23 17.6 µM | SK-MEL-5 3.47 µM | UACC-257 17.3 µM | NCI-H522 15.1 µM | LOX IMVI 9.14 µM | ACHN 10.5 µM | NCI-H226 12.4 µM | RPMI-8226 4.7 µM | Hs-578T 16.9 µM | SF-539 16.8 µM | HOP-62 12.1 µM | SF-295 11.4 µM | SF-268 14.2 µM | SW-620 12.4 µM | NCI/ADR-RES 19.4 µM | M14 7.98 µM | COLO 205 5.93 µM | HL-60 5.24 µM | MDA-MB-435 5.89 µM

O=C(O)CCC(C(=O)O)N1C(=O)C2C3CCC(C3)C2C1=O (configuration not stated)
inactive: CAKI-1 > 100 µM | NCI-H23 > 100 µM | SK-MEL-5 > 100 µM | UACC-257 > 100 µM | NCI-H522 > 100 µM | LOX IMVI > 100 µM | ACHN > 100 µM | NCI-H226 > 100 µM | RPMI-8226 > 100 µM | Hs-578T > 100 µM | SF-539 > 100 µM | HOP-62 > 100 µM | SF-295 > 100 µM | SF-268 > 100 µM | SW-620 > 100 µM | NCI/ADR-RES > 100 µM | M14 > 100 µM | COLO 205 > 100 µM | MDA-MB-435 > 100 µM

C1=N\CCNCC/N=C\c2ccc(cc2)OCc2cccc(n2)COc2ccc/1cc2
inactive: CAKI-1 > 100 µM | NCI-H23 66.7 µM | SK-MEL-5 65.8 µM | UACC-257 > 100 µM | NCI-H522 26.9 µM | ACHN 29.7 µM | NCI-H226 > 100 µM | RPMI-8226 > 100 µM | Hs-578T 23.5 µM | SF-539 47.1 µM | HOP-62 21.4 µM | SF-295 24.7 µM | SF-268 22.2 µM | SW-620 > 100 µM | NCI/ADR-RES 63.1 µM | M14 77.6 µM | COLO 205 > 100 µM | HL-60 > 100 µM | MDA-MB-435 > 100 µM

COc1ccc(Cn2c(=O)c(OS(=O)(=O)C(F)(F)F)c(C)c3cc4ccccc4cc32)cc1
inactive: CAKI-1 > 100 µM | NCI-H23 > 100 µM | SK-MEL-5 > 100 µM | UACC-257 36 µM | NCI-H522 > 100 µM | LOX IMVI > 100 µM | ACHN > 100 µM | NCI-H226 > 100 µM | Hs-578T > 100 µM | SF-539 > 100 µM | HOP-62 > 100 µM | SF-295 > 100 µM | SF-268 > 100 µM | SW-620 > 100 µM | NCI/ADR-RES > 100 µM | M14 > 100 µM | COLO 205 > 100 µM | HL-60 > 100 µM | MDA-MB-435 > 100 µM

Nc1cc2c3c(cccc3c1)C(=O)N(c1ccc(OCCN3CCCC3)cc1)C2=O
inactive: CAKI-1 45.3 µM | NCI-H23 14.4 µM | SK-MEL-5 18.7 µM | UACC-257 16.2 µM | NCI-H522 16 µM | LOX IMVI 17 µM | ACHN 13.5 µM | NCI-H226 14.5 µM | RPMI-8226 22.4 µM | Hs-578T 18.7 µM | SF-539 13.3 µM | HOP-62 15.9 µM | SF-295 13.5 µM | SF-268 21.3 µM | SW-620 29.4 µM | NCI/ADR-RES 23.9 µM | M14 20.7 µM | COLO 205 14.1 µM | MDA-MB-435 18.7 µM

CC1(C)CS(=O)(=O)CC(C)(C)C(=N/N)/C1=N\N
inactive: CAKI-1 > 100 µM | NCI-H23 > 100 µM | SK-MEL-5 > 100 µM | UACC-257 > 100 µM | NCI-H522 > 100 µM | LOX IMVI > 100 µM | ACHN > 100 µM | Hs-578T > 100 µM | SF-539 > 100 µM | HOP-62 > 100 µM | SF-295 > 100 µM | SF-268 > 100 µM | SW-620 > 100 µM | NCI/ADR-RES > 100 µM | M14 > 100 µM | COLO 205 > 100 µM | HL-60 > 100 µM | MDA-MB-435 > 100 µM

O=S(=O)(c1ccccc1)[C@H]1[C@@H]2O[C@@H]2C[C@@H]1O
inactive: CAKI-1 > 100 µM | NCI-H23 > 100 µM | SK-MEL-5 > 100 µM | UACC-257 > 100 µM | NCI-H522 > 100 µM | ACHN > 100 µM | NCI-H226 > 100 µM | RPMI-8226 > 100 µM | Hs-578T > 100 µM | SF-539 > 100 µM | HOP-62 > 100 µM | SF-295 > 100 µM | SF-268 > 100 µM | SW-620 > 100 µM | NCI/ADR-RES > 100 µM | M14 > 100 µM | COLO 205 > 100 µM | HL-60 > 100 µM | MDA-MB-435 > 100 µM
